Where “and” joins values, the source holds several entries; their conditions need not be identical. Equal values may be shown once.
How the values were obtained:
human IP6K1 = target: T1, human IP6K1 (Homo sapiens, UniProt Q92551); assay: IP6K kinase activity assay (enzyme-coupled, malachite green Pi release); assay type: biochemical; settings: 100 nM IP6K1, 25 μM InsP6, 500 μM ATP, 37 °C; mean with standard error, n = 3
T1 construct: made in house
Method: (§1) For all enzyme assays, a serial dilution of the enzyme was performed in the kinase assay to determine the linear range of the enzyme concentration to be used.
An enzyme-coupled assay was used to measure IP6K activity. Enzyme activity was assayed at 37 °C in 50 μL of reaction mixtures containing 100 nM IP6K1, 5.0 μM human Dipp1, 20 mM HEPES (pH 7.2), 100 mM KCl, 3.5 mM MgCl2, 20 μM EDTA, 25 μM InsP6, and 500 μM ATP for 60–120 min. Pi release was determined with a malachite green colorimetric assay. Reactions were quenched by the addition of 100 μL of phosphate detection reagent (36:1 v/v of 2.6% sodium molybdate in 2.5 M HCl: 0.126% malachite green chloride). Phosphate (Pi) release was quantified from the absorbance at 620 nm by using appropriate standards.

human IPMK [1] = assay: IPMK kinase activity assay (33P-radiolabeled HPLC assay); assay type: biochemical; settings: for IP6K1/IPMK: ratio of IP6K1 IC50 to IPMK IC50; for selectivity for IPMK over IP6K1: from IC50 values
Method: as §1
(§2) We prepared ^33P-1,3,4,5-IP4 by incubating 1,4,5-IP3, ^33P-ATP, and IPMK, isolated the product with a 30 K d MW cutoff filter. Each reaction contained trace amounts (4,00,000 disintegrations per minute (dpm)) of ^33P-1,3,4,5-IP4 in a 100 μL incubation containing 20 mM HEPES (pH 7.2), 100 mM KCl, 3.5 mM MgCl2, 20 μM EDTA, 1.0 mM ATP, 1 μM 1,3,4,5-IP4, plus test compound in DMSO (or vehicle control) plus 2 nM IPMK. Assays were analyzed by HPLC, using a PartiSphere SAX 120, 5 μm, 4.6 × 125 mm HPLC column with a 250 μL injection volume. The elution gradient was generated by mixing Buffer A (1 mm Na2EDTA) with Buffer B (Buffer A plus 2.5 M NH4H2PO4, pH 3.9) and monitored by a β-RAM 6 in-line scintillation detector. A 1.0 mL/min elute was mixed with 0.5 or 2.5 mL/min monoflow scintillation liquid for ^33P or ^3H, respectively. Radiochromatography data were collected and analyzed using Laura software (v6.1.2.36).

human IPMK [2] = target: T2, human IPMK (Homo sapiens, UniProt Q8NFU5); assay: as above; assay type: biochemical; settings: 33P-1,3,4,5-IP4 to InsP5, 1.0 mM ATP, 2 nM IPMK; mean with standard error, n = 3 (compound 1 n = 5)
T2 sequence (Q8NFU5 with tags, fused parts or gaps): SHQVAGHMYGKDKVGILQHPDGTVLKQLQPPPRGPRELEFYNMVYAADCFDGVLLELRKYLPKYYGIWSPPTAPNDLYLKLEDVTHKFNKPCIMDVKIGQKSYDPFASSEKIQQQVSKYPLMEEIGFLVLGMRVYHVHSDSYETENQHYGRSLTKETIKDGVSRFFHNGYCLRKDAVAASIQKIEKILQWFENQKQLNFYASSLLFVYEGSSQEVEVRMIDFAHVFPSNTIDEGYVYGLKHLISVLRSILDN
Method: as §1, §2

[3] = tested on: human U251-MG glioblastoma cells; parameters: method as in other studies (number not given); settings: ref other studies (number not given); cited from earlier work
[4] = parameters: method as in recent work from another group (number not given); settings: mice, intraperitoneal injection; ref recent work from another group (number not given); cited from earlier work
IP3K-A = IP3K-A (Homo sapiens, UniProt P23677); assay: IP3K kinase activity assay ([3H]-InsP3, HPLC); assay type: biochemical; settings: 1.0 μM 1,4,5-InsP3, 1.0 mM ATP, 0.25 nM IP3K-A; standard error, n = 3
Method: as §1
Each reaction contained 1.0 μM [^3H]-1,4,5-InsP3 (approximately 30,000 dpm; American Radiolabeled Chemicals, Inc., ART 0270) in a 100 μL incubation containing 20 mM HEPES (pH 7.2), 100 mM KCl, 3.5 mM MgCl2, 20 μM EDTA, 1.0 mM ATP, 1.0 μM 1,4,5-InsP3, plus test compound in DMSO (or vehicle control), and 0.25 nM IP3K-A. Reactions were quenched after 60 min by the addition of 2 volumes of 0.2 M NH4H2PO4, pH 3.9 and 20 mM EDTA and stored at 27 °C. Assays were analyzed by HPLC, using a PartiSphere SAX 120 Å, 5 μm, 4.6 × 125 mm HPLC column with a 250 μL injection volume. The elution gradient was generated by mixing Buffer A (1 mm Na2EDTA) with Buffer B (Buffer A plus 2.5 M NH4H2PO4, pH 3.9) and monitored by a β-RAM 6 in-line scintillation detector. A 1.0 mL/min elute was mixed with 0.5 or 2.5 mL/min monoflow scintillation liquid for ^33P or ^3H, respectively. Radiochromatography data were collected and analyzed using Laura software (v6.1.2.36).

human IPMK [5] = target: T2, human IPMK; assay: Isothermal titration calorimetry (ITC); assay type: binding; settings: 15 μM IPMK in cell, 150 μM inhibitor in syringe, 25 °C, pH 7.2
Method: Isothermal calorimetry experiments were performed using a MicroCal PEAQ-ITC (Malvern Panalytical) with 15 μM recombinant human IPMK in the sample cell and 150 μM inhibitor 1 in the syringe, each of which was maintained at 25 °C in buffer containing 20 mM Tris-HCl, pH 7.2, 150 mM KCl, 0.05 mM EDTA, and 0.8 mM MgCl2. The sample cell (volume = 204 μL) and the syringe were cleaned before each run. Thermograms were constructed from 20 injections, each of which involved 2.0 μL of ligand delivered for 4.0 s, with an equilibration time of 150–300 s between each injection. The stirring speed was set to 750 rpm. Data were fitted to a single binding site model using the analysis software provided by the manufacturer, as supported by X-ray crystallography. At least three runs were performed.

T1 sequence (Q92551 whole entry): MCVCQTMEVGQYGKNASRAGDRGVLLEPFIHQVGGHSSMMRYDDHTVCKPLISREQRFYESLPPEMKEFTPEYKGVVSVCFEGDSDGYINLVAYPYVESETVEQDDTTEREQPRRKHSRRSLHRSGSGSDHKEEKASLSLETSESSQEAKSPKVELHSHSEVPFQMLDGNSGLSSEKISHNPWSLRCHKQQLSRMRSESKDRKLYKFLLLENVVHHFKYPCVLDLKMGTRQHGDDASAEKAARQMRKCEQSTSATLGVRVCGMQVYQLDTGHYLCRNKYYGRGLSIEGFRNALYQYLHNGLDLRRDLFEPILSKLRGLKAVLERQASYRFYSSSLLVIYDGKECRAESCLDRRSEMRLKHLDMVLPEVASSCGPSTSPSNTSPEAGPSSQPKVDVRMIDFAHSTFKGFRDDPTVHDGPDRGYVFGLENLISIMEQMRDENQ
Sequence of IP3K-A (P23677 whole entry): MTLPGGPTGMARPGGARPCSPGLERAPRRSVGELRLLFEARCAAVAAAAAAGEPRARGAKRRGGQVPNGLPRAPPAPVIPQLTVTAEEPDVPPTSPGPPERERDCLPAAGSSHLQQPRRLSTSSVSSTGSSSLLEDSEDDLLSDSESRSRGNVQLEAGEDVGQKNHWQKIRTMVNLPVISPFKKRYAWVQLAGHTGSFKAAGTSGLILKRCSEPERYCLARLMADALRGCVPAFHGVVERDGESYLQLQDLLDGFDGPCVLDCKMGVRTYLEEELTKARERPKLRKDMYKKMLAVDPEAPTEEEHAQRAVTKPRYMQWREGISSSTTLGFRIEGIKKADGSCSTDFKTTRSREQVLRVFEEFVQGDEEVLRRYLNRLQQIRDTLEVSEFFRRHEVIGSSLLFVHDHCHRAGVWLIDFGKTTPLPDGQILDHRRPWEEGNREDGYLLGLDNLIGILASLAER

SMILES	IC50 (human IP6K1)	IP6K1/IPMK (human IPMK [1])	IC50 (human IPMK [2])	cellular growth [3]	inositol phosphate metabolism [3]	clearance, half-life, and volume of distribution [4]	IC50 (IP3K-A)	Kd (human IPMK [5])	selectivity for IPMK over IP6K1 (human IPMK [1])
O=C(Nc1cccc(-c2onc3ccc(-c4nnn[nH]4)cc23)c1)C1CCCC1 [Compound 15]	40.1 ± 4 nM	36	1.1 nM and 1.13 nM	–	–	–	–	–	–
c1cc(-c2onc3ccc(-c4nnn[nH]4)cc23)cc(C2CCN(C3CCC3)CC2)c1 [Compound 14]	–	–	3 nM and 2.8 nM	decrease	decrease	reasonable	–	–	–
Cc1cc(C)cc(-c2onc3ccc(/C=C/C(=O)O)cc23)c1 [Compound 1]	146 ± 23 nM	11.4	12.8 ± 2 nM	–	–	–	8000 nM	11 nM	approximately 10 fold
FC(F)(F)Oc1ccc(-c2onc3ccc(-c4nnn[nH]4)cc23)cc1 [Compound 8]	59 ± 14 nM	13	3.3 ± 0.4 nM	–	–	–	–	–	–
Cc1cc(C)cc(-c2onc3ccc(-c4nnn[nH]4)cc23)c1 [Compound 4]	24 ± 6 nM	13	1.9 ± 0.2 nM	–	–	–	–	–	–
Clc1cnc(Oc2cccc(-c3onc4ccc(-c5nnn[nH]5)cc34)c2)c(Cl)c1 [Compound 13]	19 ± 4 nM	1.9	9.5 ± 2 nM	–	–	–	–	–	–
c1ccc(-c2onc3ccc(-c4nnn[nH]4)cc23)cc1 [Compound 6]	38 ± 8 nM	10	3.8 ± 0.4 nM	–	–	–	–	–	10 fold
FC(F)(F)c1ccc(-c2onc3ccc(-c4nnn[nH]4)cc23)cc1 [Compound 7]	–	9.2	2.5 ± 0.3 nM	–	–	–	–	–	–
c1ccc(Oc2ccc(-c3onc4ccc(-c5nnn[nH]5)cc34)cc2)cc1 [Compound 9]	1270 nM and 1300 nM	115	11 ± 2 nM	–	–	–	–	–	–
Cc1cc(C)cc(-c2onc3ccc([C@H]4C[C@@H]4C(=O)O)cc23)c1 [Compound 2]	45 ± 7 nM	5.6	8.1 ± 2 nM	–	–	–	–	–	–
O=C(Nc1cccc(-c2onc3ccc(-c4nnn[nH]4)cc23)c1)C1CC1 [Compound 11]	52 nM and 51.8 nM	52	0.99 nM and 1 nM	–	–	–	–	–	50 fold
Cc1cc(C)cc(-c2onc3ccc(C(=O)O)cc23)c1 [Compound 3]	–	3	29 ± 5 nM	–	–	–	–	–	–
O=C(Nc1ccc(-c2onc3ccc(-c4nnn[nH]4)cc23)cc1)C1CC1 [Compound 10]	35.8 nM and 36 nM	10	3.5 ± 0.4 nM	–	–	–	–	–	–
c1cc(OC2CCNCC2)cc(-c2onc3ccc(-c4nnn[nH]4)cc23)c1 [Compound 12]	–	8.8	3.4 ± 0.5 nM	–	–	–	–	–	–

From article PMC12670395, “Structural Rationalization of IPMK Inhibitor Potency” (Journal of Medicinal Chemistry, 2025)
